# Reference: patent US8884017B2, “2-heteroarylcarboxylic acid amides” (Bayer Intellectual Property GmbH, priority 2001, dated 2014)
# Where a name gives a salt, the structure may show the parent alone.
# Molecular target: α7-nAChR (Rattus norvegicus (Rat), UniProt Q05941)
# Assay: Affinity for α7-nAChR by inhibition of [3H]-methyllycaconitine binding to rat brain membranes
# Details: rat brain membranes (P2 fraction), Ki=IC50/(1+L/KD)
# Experimental: 1. Determination of the Affinity of Test Substances for α7-nAChR by Inhibition of [^3H]-methyllycaconitine Binding to Rat Brain Membranes
# The [^3H]-methyllycaconitine binding assay is a modification of the method described by Davies et al. in Neuropharmacol.
# Rat brain tissue (hippocampus or whole brain) is homogenized in homogenization buffer (10% w/v, 0.32 M sucrose, 1 mM EDTA, 0.1 mM phenylmethylsulfonyl fluoride (PMSF), 0.01% (w/v) NaN3, pH 7.4, 4° C.) at 600 rpm in a glass homogenizer. The homogenate is centrifuged (1000×g, 4° C., 10 min) and the supernatant is removed. The pellet is resuspended (20% w/v) and the suspension is centrifuged (1000×g, 4° C., 10 min). The two supernatants are combined and centrifuged (15 000×g, 4° C., 30 min). The pellet obtained in this way is referred to as the P2 fraction.
# The P2 pellet is washed with binding buffer (50 mM Tris-HCl, 1 mM MgCl2, 120 mM NaCl, 5 mM KCl, 2 mM CaCl2, pH 7.4), and centrifuged (15 000×g, 4° C., 30 min), twice.
# The P2 membranes are resuspended in binding buffer and incubated in a volume of 250 μl (amount of membrane protein 0.1-0.5 mg) in the presence of 1-5 nM [^3H]-methyllycaconitine, 0.1% (w/v) BSA (bovine serum albumin) and various concentrations of the test substance at 21° C. for 2.5 h. Incubation is then carried out in the presence of 1 μM α-bungarotoxin or 100 μM nicotine or 10 μM MLA (methyllycaconitine) to determine the non-specific binding.
# The incubation is stopped by adding 4 ml PBS (20 mM Na2HPO4, 5 mM KH2PO4, 150 mM NaCl, pH 7.4, 4° C.) and filtering through type A/E glass fibre filters (Gelman Sciences) which have previously been placed in 0.3% (v/v) polyethyleneimine (PEI) for 3 h. The filters are washed twice with 4 ml of PBS (4° C.), and the bound radioactivity is determined by scintillation measurement. All the assays are carried out in triplicate.
# Sequence of α7-nAChR (Q05941 23-502 limits assumed): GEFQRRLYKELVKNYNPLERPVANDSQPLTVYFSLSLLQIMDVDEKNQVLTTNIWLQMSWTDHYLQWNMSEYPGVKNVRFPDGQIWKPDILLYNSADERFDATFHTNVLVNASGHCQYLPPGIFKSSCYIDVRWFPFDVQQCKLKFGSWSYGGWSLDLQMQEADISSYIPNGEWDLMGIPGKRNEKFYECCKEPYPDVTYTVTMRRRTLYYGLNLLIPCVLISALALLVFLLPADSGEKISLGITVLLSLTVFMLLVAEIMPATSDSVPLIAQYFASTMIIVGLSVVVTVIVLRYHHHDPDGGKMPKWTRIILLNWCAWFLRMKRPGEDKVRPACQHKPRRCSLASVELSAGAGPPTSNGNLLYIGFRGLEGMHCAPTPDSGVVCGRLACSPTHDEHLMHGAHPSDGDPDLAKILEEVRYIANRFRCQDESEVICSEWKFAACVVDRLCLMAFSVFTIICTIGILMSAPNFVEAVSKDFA
row,SMILES,Ki [µM]
1,"COc1cccc2cc(C(=O)N[C@H]3CN4CCC3CC4)sc12 [Example 76, N-[(3R)-1-Azabicyclo[2.2.2]oct-3-yl]-7-methoxy-1-benzothiophene-2-carboxamide hydrochloride]",0.0067
2,"O=C(N[C@H]1CN2CCC1CC2)c1cc2c(F)cccc2s1 [Example 78, N-[(3R)-1-Azabicyclo[2.2.2]oct-3-yl]-4-fluoro-1-benzothiophene-2-carboxamide hydrochloride]",0.08
3,"O=C(N[C@H]1CN2CCC1CC2)c1cc2cccc(C(F)(F)F)c2s1 [Example 64, N-[(3R)-1-Azabicyclo[2.2.2]oct-3-yl]-7-trifluoromethyl-1-benzothiophene-2-carboxamide hydrochloride]",0.02
4,"O=C(N[C@H]1CN2CCC1CC2)c1cc2ccc3ccccc3c2o1 [Example 48, N-[(3R)-1-Azabicyclo[2.2.2]oct-3-yl]naphtho[1,2-b]furan-2-carboxamide hydrochloride]",0.075
5,"Nc1cccc2cc(C(=O)N[C@H]3CN4CCC3CC4)oc12 [Example 37, N-[(3R)-1-Azabicyclo[2.2.2]oct-3-yl]-7-amino-1-benzofuran-2-carboxamide]",0.08
6,"COc1cccc2cc(C(=O)N[C@H]3CN4CCC3CC4)oc12 [Example 19, N-[(3R)-1-Azabicyclo[2.2.2]oct-3-yl]-7-methoxy-1-benzofuran-2-carboxamide hydrochloride]",0.042
7,"Nc1ccc2cc(C(=O)N[C@H]3CN4CCC3CC4)oc2c1 [Example 35, N-[(3R)-1-Azabicyclo[2.2.2]oct-3-yl]-6-amino-1-benzofuran-2-carboxamide]",0.0037
8,"O=C(N[C@H]1CN2CCC1CC2)c1cc2cc(F)ccc2s1 [Example 74, N-[(3R)-1-Azabicyclo[2.2.2]oct-3-yl]-5-fluoro-1-benzothiophene-2-carboxamide hydrochloride]",0.022
9,"COc1cccc2cc(C(=O)N[C@@H]3CN4CCC3CC4)sc12 [Example 77, N-[(3S)-1-Azabicyclo[2.2.2]oct-3-yl]-7-methoxy-1-benzothiophene-2-carboxamide hydrochloride]",0.02
10,"Nc1ccc2sc(C(=O)N[C@H]3CN4CCC3CC4)cc2c1 [Example 62, N-[(3R)-1-Azabicyclo[2.2.2]oct-3-yl]-5-amino-1-benzothiophene-2-carboxamide dihydrochloride]",0.05
11,"O=C(N[C@@H]1CN2CCC1CC2)c1cc2cccc(F)c2s1 [Example 59, N-[(3S)-1-Azabicyclo[2.2.2]oct-3-yl]-7-fluoro-1-benzothiophene-2-carboxamide hydrochloride]",0.02
12,"O=C(N[C@H]1CN2CCC1CC2)c1cc2cc(F)ccc2o1 [Example 42, N-[(3R)-1-Azabicyclo[2.2.2]oct-3-yl]-5-fluoro-1-benzofuran-2-carboxamide hydrochloride]",0.037
13,"O=C(N[C@H]1CN2CCC1CC2)c1cc2cc(F)cc(F)c2s1 [Example 80, N-[(3R)-1-Azabicyclo[2.2.2]oct-3-yl]-5,7-difluoro-1-benzothiophene-2-carboxamide hydrochloride]",0.031
14,"O=C(N[C@H]1CN2CCC1CC2)c1cc2cccc([N+](=O)[O-])c2o1 [Example 36, N-[(3R)-1-Azabicyclo[2.2.2]oct-3-yl]-7-nitro-1-benzofuran-2-carboxamide]",0.063
15,"CC(=O)Nc1ccc2cc(C(=O)N[C@H]3CN4CCC3CC4)sc2c1 [Example 88, 6-(Acetylamino)-N-[(3R)-1-azabicyclo[2.2.2]oct-3-yl]-1-benzothiophene-2-carboxamide hydrochloride]",0.028
16,"O=C(N[C@@H]1CN2CCC1CC2)c1cc2cccc(C(F)(F)F)c2s1 [Example 65, N-[(3S)-1-Azabicyclo[2.2.2]oct-3-yl]-7-trifluoromethyl-1-benzothiophene-2-carboxamide hydrochloride]",0.055
17,"O=C(N[C@H]1CN2CCC1CC2)c1cc2cccc(Br)c2o1 [Example 46, N-[(3R)-1-Azabicyclo[2.2.2]oct-3-yl]-7-bromo-1-benzofuran-2-carboxamide]",0.058
18,"Nc1ccc2cc(C(=O)N[C@H]3CN4CCC3CC4)sc2c1 [Example 73, 6-Amino-N-[(3R)-1-azabicyclo[2.2.2]oct-3-yl]-1-benzothiophene-2-carboxamide dihydrochloride]",0.0028
19,"Nc1cccc2cc(C(=O)N[C@H]3CN4CCC3CC4)sc12 [Example 68, N-[(3R)-1-Azabicyclo[2.2.2]oct-3-yl]-7-amino-1-benzothiophene-2-carboxamide dihydrochloride]",0.002
